Experimental data taken from patent US20090105349A1, “ANDROGEN MODULATORS” (WARNER-LAMBERT COMPANY LLC, priority 2004, published 2009).
Numbering of substitutions follows the chain as printed. Like-named read-outs stand apart in the source and are kept apart here.

How the values were obtained:
[1] = molecular target: T1, androgen receptor in MDA-MB453-MMTV clone 54-19 cells (Homo sapiens, UniProt P10275); test: AR antagonist cell assay (MMTV-luciferase reporter); format: cell-based
T1 sequence (P10275 1-920 Q868H): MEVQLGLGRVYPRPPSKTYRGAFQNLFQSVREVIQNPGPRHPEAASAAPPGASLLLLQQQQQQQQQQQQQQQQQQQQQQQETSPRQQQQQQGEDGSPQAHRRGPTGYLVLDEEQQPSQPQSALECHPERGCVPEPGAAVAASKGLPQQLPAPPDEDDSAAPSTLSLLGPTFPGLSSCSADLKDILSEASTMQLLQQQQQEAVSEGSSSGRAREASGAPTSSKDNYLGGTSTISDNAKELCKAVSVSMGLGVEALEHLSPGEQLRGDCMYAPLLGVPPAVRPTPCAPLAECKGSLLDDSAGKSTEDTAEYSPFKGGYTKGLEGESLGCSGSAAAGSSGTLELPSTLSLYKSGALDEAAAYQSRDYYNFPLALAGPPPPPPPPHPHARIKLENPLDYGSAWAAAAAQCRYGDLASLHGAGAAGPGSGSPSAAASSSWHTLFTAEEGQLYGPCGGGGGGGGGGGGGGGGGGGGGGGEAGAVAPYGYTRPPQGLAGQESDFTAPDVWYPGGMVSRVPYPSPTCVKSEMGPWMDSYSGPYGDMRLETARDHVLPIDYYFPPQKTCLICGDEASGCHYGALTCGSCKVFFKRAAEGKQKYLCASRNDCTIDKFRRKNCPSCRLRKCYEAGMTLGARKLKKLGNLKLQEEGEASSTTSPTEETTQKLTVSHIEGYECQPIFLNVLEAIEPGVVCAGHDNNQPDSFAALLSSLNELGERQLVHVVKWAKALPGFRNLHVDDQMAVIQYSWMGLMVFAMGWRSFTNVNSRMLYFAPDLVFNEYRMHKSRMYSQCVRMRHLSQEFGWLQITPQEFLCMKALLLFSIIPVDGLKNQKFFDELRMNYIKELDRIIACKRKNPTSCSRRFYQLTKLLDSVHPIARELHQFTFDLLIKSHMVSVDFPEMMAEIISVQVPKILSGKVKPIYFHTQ
Experimental: The compounds ability to antagonize the effects of androgen on the androgen receptor were determined in a whole cell assay as described immediately below.
This cell line is a stable transfected cell line with MDA-MB453 cell background (a human breast tumor cell line expressing androgen receptor). A MMTV minimal promoter containing ARE was first cloned in front of a firefly luciferase reporter gene. Then the cascade was cloned into transfection vector pUV120puro. […] Puromycin resistant stable cell line was selected.
Plating medium: DMEM (phenol red free), 10% charcoal treated HyClone serum, 1% L-glutamine
Assay medium: DMEM (phenol red free), 1% charcoal treated HyClone serum, 1% L-glutamine, and 1% penicillin/streptomycin
Assay procedure: • 1. Cells are maintained in culture medium, splitting cells when they reach 80-90% confluence • 2. To test compounds, 10,000 cells/well are plated to opaque 96 cell culture plate in 100 ul/well plating medium, culture for overnight at 37° C. in cell culture incubator • 3. […] Add 10 ul/well freshly prepared DHT (final concentration at […]) to each well, incubate at 37° C. for 17 hr (overnight) • 5.
The results are reported as the mean of multiple tests as described below (the numbers of tests are indicated in the footnote). N.D. denotes that the compound was not tested.

[2] = molecular target: T2, hAR (human androgen receptor) (Homo sapiens, UniProt P10275); test: Competitive hAR binding assay with 3H-DHT tracer
T2 construct: made in house; host or cells: baculovirus/Sf9 insect cells (crude extract)
T2 sequence (P10275 1-920): T1 sequence (P10275 1-920 Q868H) with H868Q
Experimental: The description below describes how the assay was carried out.
Competitive binding analysis was performed on baculovirus/Sf9 generated hAR extracts in the presence or absence of different concentrations of test agent and a fixed concentration of ^3H-dihydrotestosterone (3H-DHT) as tracer. […] Subsequently, the binding reactions are washed three times to completely remove excess unbound ^3H-DHT. hAR bound ^3H-DHT levels are determined in the presence of compounds (i.e. competitive binding) and compared to levels bound when no competitor is present (i.e. maximum binding). Compound binding affinity to the hAR is expressed as the concentration of compound at which one half of the maximum binding is inhibited.

[3] = MDA-MB453-MMTV clone 54-19, inhibition of DHT induced luciferase, 17 hr; mean of multiple tests; read-out: AR Cell IC50
[4] = baculovirus/Sf9 hAR extract, 1 nM 3H-DHT, one hour at 4° C, mean of multiple tests, read-out: AR Binding IC50
[5] = read-out: AR Cell IC50; MDA-MB453-MMTV clone 54-19, inhibition of DHT induced luciferase, 17 hr; mean of multiple tests

With `CCOc1cc(C)ccc1Oc1ccc(C#N)c(Cl)c1` [Example 57, 2-Chloro-4-(2-ethoxy-4-methyl-phenoxy)-benzonitrile] the IC50 [1, 3] was over 1 µM and the IC50 [2] was 0.007 µM.
For `CSc1ccc(Oc2ccc(C#N)c(Cl)c2)c(C)c1` [Example 59, 2-Chloro-4-(2-methyl-4-methylsulfanyl-phenoxy)-benzonitrile], the IC50 [1, 3] was 0.175 µM and the IC50 [2, 4] was 0.268 µM.
Compound `Cc1cc(F)ccc1Oc1ccc(C#N)c(Cl)c1` [Example 60, 2-Chloro-4-(4-fluoro-2-methyl-phenoxy)-benzonitrile] has an IC50 [1, 5] of 0.072 µM and an IC50 [2] of 0.048 µM.
With `CCCC(=O)Nc1ccc(Oc2ccc(C#N)c(Cl)c2)cc1` [Example 61, N-[4-(3-Chloro-4-cyano-phenoxy)-phenyl]-butyramide] the IC50 [1, 3] was 0.535 µM and the IC50 [2, 4] was 0.163 µM.
For `CC(C)Oc1ccccc1Oc1ccc(C#N)c(Cl)c1` [Example 63, 2-Chloro-4-(2-isopropoxy-phenoxy)-benzonitrile], the IC50 [1, 5] was 0.004 µM and the IC50 [2] was 0.07 µM.
With `N#Cc1ccc(Oc2ccccc2C(F)(F)F)cc1Cl` [Example 64, 4-(2-Trifluoromethyl-phenoxy)-2-chloro-benzonitrile] the IC50 [1, 3] was 0.842 µM and the IC50 [2] was 0.034 µM.
`N#Cc1ccc(Oc2ccccc2C#N)cc1Cl` [Example 65, 2-Chloro-(2-cyano-phenoxy)-benzonitrile] showed an IC50 [1, 5] of 0.00032 µM and an IC50 [2] of 0.014 µM.
`N#Cc1ccc(Oc2ccccc2)cc1Cl` [Example 66, 2-Chloro-4-phenoxy-benzonitrile] gave an IC50 [1, 3] of 0.333 µM and an IC50 [2, 4] of 0.147 µM.
For `N#Cc1ccc(Oc2ccc(C#N)c(Cl)c2)cc1` [Example 67, 2-Chloro-(4-cyano-phenoxy)-benzonitrile], the IC50 [1, 3] was 0.34 µM and the IC50 [2, 4] was 0.23 µM.
In the case of `Cc1ccc(C)c(Oc2ccc(C#N)c(Cl)c2)c1` [Example 68, 2-Chloro-4-(2,5-dimethyl-phenoxy)-benzonitrile], the IC50 [1, 3] is reported as over 1 µM and the IC50 [2] is reported as 0.069 µM.
In the case of `N#Cc1ccc(Oc2ccccc2-c2ccccc2)cc1Cl` [Example 69, 4-(Biphenyl-2-yloxy)-2-chloro-benzonitrile], the IC50 [1, 3] is reported as over 1 µM and the IC50 [2, 4] is reported as 0.159 µM.
Work on `N#Cc1ccc(Oc2ccc(O)cc2)cc1C(F)(F)F` [Example 80, 4-(4-Hydroxy-phenoxy)-2-trifluoromethyl-benzonitrile] yielded an IC50 [1, 5] of 0.062 µM and an IC50 [2, 4] of 0.207 µM.
Compound `N#Cc1ccc(Oc2cccc(O)c2)cc1C(F)(F)F` [Example 82, 4-(3-Hydroxy-phenoxy)-2-trifluoromethyl-benzonitrile] has an IC50 [1, 5] of 0.061 µM and an IC50 [2] of 0.085 µM.
`CC(=O)c1c(O)cccc1Oc1ccc(C#N)c(C(F)(F)F)c1` [Example 85, 4-(2-Acetyl-3-hydroxy-phenoxy)-2-trifluoromethyl-benzonitrile] gave an IC50 [1, 5] of 0.004 µM and an IC50 [2, 4] of 0.111 µM.
For `CC(=O)c1ccccc1Oc1ccc(C#N)c(C(F)(F)F)c1` [Example 88, 4-(2-Acetyl-phenoxy)-2-trifluoromethyl-benzonitrile], the IC50 [1, 3] was 0.123 µM and the IC50 [2, 4] was 0.276 µM.
`COc1ccc(Oc2ccc(C#N)c(C(F)(F)F)c2)c(C(C)=O)c1` [Example 90, 4-(2-Acetyl-4-methoxy-phenoxy)-2-trifluoromethyl-benzonitrile] showed an IC50 [1, 3] of 0.477 µM and an IC50 [2, 4] of 0.204 µM.
`N#Cc1ccc(Oc2cccc3ccccc23)cc1C(F)(F)F` [Example 97, 4-(Naphthalen-1-yloxy)-2-trifluoromethyl-benzonitrile] gave an IC50 [1, 3] of 0.554 µM and an IC50 [2] of 0.1 µM.
In the case of `Cc1ccc(Oc2ccc(C#N)c(C(F)(F)F)c2)c(C)c1` [Example 99, 4-(2,4-Dimethyl-phenoxy)-2-trifluoromethyl-benzonitrile], the IC50 [1, 3] is reported as 0.899 µM and the IC50 [2] is reported as 0.046 µM.
For `N#Cc1ccc(Oc2ccc(C#N)c(C(F)(F)F)c2)cc1C#N` [Example 100, 4-(4-Cyano-3-trifluoromethyl-phenoxy)-phthalonitrile], the IC50 [1, 3] was 0.822 µM and the IC50 [2, 4] was 0.173 µM.
Compound `N#Cc1ccc(Oc2ccccc2C2CCCC2)cc1C(F)(F)F` [Example 104, 4-(2-Cyclopentyl-phenoxy)-2-trifluoromethyl-benzonitrile] has an IC50 [1, 3] of 0.592 µM and an IC50 [2, 4] of 0.228 µM.
`C=CCc1ccccc1Oc1ccc(C#N)c(C(F)(F)F)c1` [Example 105, 4-(2-Allyl-phenoxy)-2-trifluoromethyl-benzonitrile] was tested, and the IC50 [1, 3] was over 1 µM and the IC50 [2] was 0.082 µM.
`CCN(CC)C(=O)c1ccccc1Oc1ccc(C#N)c(C(F)(F)F)c1` [Example 106, 2-(4-Cyano-3-trifluoromethyl-phenoxy)-N,N-diethyl-benzamide] gave an IC50 [1, 3] of over 1 µM and an IC50 [2, 4] of 0.175 µM.
`N#Cc1ccc(Oc2ccccc2C(F)(F)F)cc1C(F)(F)F` [Example 108, 2-Trifluoromethyl-4-(2-trifluoromethyl-phenoxy)-benzonitrile] gave an IC50 [1, 3] of over 1 µM and an IC50 [2] of 0.057 µM.
`CC(C)Oc1ccccc1Oc1ccc(C#N)c(C(F)(F)F)c1` [Example 110, 4-(2-Isopropoxy-phenoxy)-2-trifluoromethyl-benzonitrile] showed an IC50 [1, 3] of 0.206 µM and an IC50 [2, 4] of 0.218 µM.
`N#Cc1ccc(Oc2ccc(F)cc2F)cc1C(F)(F)F` [Example 115, 4-(2,4-Difluoro-phenoxy)-2-trifluoromethyl-benzonitrile] showed an IC50 [1, 5] of 0.056 µM and an IC50 [2] of 0.128 µM.
`COc1c(O)cccc1Oc1ccc(C#N)c(C(F)(F)F)c1` [Example 116, 4-(3-Hydroxy-2-methoxy-phenoxy)-2-trifluoromethyl-benzonitrile] gave an IC50 [1, 5] of 0.003 µM and an IC50 [2] of 0.03 µM.
Compound `COc1cc(Oc2ccccc2C)ccc1C#N` [Example 117, 2-Methoxy-4-o-tolyloxy-benzonitrile] has an IC50 [1, 3] of 0.026 µM and an IC50 [2, 4] of 0.053 µM.
`Cc1ccc(F)c(Oc2ccc(C#N)c(C(F)(F)F)c2)c1F` [Example 118, 4-(2,6-Difluoro-3-methyl-phenoxy)-2-trifluoromethyl-benzonitrile] was tested, and the IC50 [1, 3] was 0.249 µM and the IC50 [2] was 0.076 µM.
